Experimental data: patent publication US9617226B2 (AbbVie Deutschland GmbH & Co. KG, priority 2014, dated 2017)

Tests used:
[1] = target: human vasopressin V1a receptor (Homo sapiens (Human), UniProt P37288); experiment: Vasopressin V1a receptor binding assay; conditions: selectivity quotient, human V1a vs human V1b
Experimental: The test substances were dissolved in a concentration of 5 mM M in DMSO. Further dilution of these DMSO solutions took place as described for V1b.
The membrane pellet was again homogenized in a High-Pressure-Homogenizer, Polytec 50K at 1500 PSI (Heinemann, Germany) and subsequently taken up in 50 mM Tris-HCl, pH 7.4, homogenized and stored in aliquots frozen in liquid nitrogen at −190° C.
The incubation buffer was: 50 mM Tris, 10 mM MgCl2, 0.1% BSA, pH 7.4.
Duplicate determinations were carried out.
After incubation (60 minutes at room temperature), the samples were processed as described for V1b.
The binding parameters were calculated by nonlinear regression in SAS.

[2] = target: human vasopressin V1b receptor (Homo sapiens (Human), UniProt P47901); experiment: biochemical
Chain of human vasopressin V1b receptor (P47901 whole entry): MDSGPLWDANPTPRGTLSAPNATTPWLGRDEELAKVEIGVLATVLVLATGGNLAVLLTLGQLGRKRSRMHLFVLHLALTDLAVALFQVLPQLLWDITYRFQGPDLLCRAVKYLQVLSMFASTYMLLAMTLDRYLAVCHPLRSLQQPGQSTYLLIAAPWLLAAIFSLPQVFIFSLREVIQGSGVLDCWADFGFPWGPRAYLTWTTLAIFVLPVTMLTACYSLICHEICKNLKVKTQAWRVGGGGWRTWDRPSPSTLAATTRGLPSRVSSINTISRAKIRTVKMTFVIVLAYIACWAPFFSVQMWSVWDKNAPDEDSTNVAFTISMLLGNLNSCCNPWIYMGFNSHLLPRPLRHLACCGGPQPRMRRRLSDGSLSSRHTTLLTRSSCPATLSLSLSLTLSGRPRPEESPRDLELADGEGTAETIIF

Chain of human vasopressin V1a receptor (P37288 whole entry): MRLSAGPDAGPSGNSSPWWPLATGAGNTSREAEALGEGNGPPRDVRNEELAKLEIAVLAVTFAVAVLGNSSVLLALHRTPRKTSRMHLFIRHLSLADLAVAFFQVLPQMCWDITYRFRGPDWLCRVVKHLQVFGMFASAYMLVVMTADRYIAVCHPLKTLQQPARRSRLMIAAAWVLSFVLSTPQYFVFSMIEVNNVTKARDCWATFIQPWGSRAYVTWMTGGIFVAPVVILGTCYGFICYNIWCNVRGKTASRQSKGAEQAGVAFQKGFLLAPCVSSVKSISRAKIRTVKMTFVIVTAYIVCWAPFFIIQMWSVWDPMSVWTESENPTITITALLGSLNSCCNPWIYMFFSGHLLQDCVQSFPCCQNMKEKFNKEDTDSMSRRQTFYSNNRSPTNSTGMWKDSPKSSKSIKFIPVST

| Ki(h-V1a)/Ki(h-V1b) [1] | Ki [2] [nM] | SMILES |
| --- | --- | --- |
| +++ (>75) | 1 to 10 | CC(C)NC(=O)Cn1c(-c2cccc(Cl)c2)nc2ccc([C@H]3C[C@@H](CN4CCCC(C#N)C4)C3)cc2c1=O (relative stereo) [Example 14, cis-2-[2-(3-Chlorophenyl)-6-[3-[(3-cyano-1-piperidyl)methyl]cyclobutyl]-4-oxo-quinazolin-3-yl]-N-isopropyl-acetamide] |
| +++ (>75) | 1 to 10 | CC(C)NC(=O)Cn1c(-c2cccc(Cl)c2)nc2ccc([C@H]3C[C@@H](CN4CCCC(F)C4)C3)cc2c1=O (relative stereo) [Example 39, cis-2-[2-(3-Chlorophenyl)-6-[3-[(3-fluoro-1-piperidyl)methyl]cyclobutyl]-4-oxo-quinazolin-3-yl]-N-isopropyl-acetamide] |
| +++ (>75) | 10 to 100 | CC(C)NC(=O)Cn1c(-c2cccc(Cl)c2)nc2ccc([C@H]3C[C@@H](CN4CC(C)OC(C)C4)C3)cc2c1=O (relative stereo) [Example 43, cis-2-[2-(3-Chlorophenyl)-6-[3-[(2,6-dimethylmorpholin-4-yl)methyl]cyclobutyl]-4-oxo-quinazolin-3-yl]-N-isopropyl-acetamide] |
| +++ (>75) | 10 to 100 | CC(C)NC(=O)Cn1c(-c2cccc(Cl)c2)nc2ccc(C3=CC(CN4CCCCC4)C3)cc2c1=O (stereo not drawn) [Example 1, 2-(2-(3-Chlorophenyl)-4-oxo-6-(3-(piperidin-1-ylmethyl)cyclobut-1-en-1-yl)quinazolin-3(4H)-yl)-N-isopropylacetamide] |
| +++ (>75) | 1 to 10 | CC(C)NC(=O)Cn1c(-c2cccc(Cl)c2)nc2ccc([C@H]3C[C@@H](CN4CCCCC4)C3)cc2c1=O [Example 2a, cis-2-[2-(3-chlorophenyl)-4-oxo-6-[3-(1-piperidylmethyl)cyclobutyl]quinazolin-3-yl]-N-isopropyl-acetamide] |
| +++ (>75) | 10 to 100 | CC(C)NC(=O)Cn1c(-c2cccc(Cl)c2)nc2ccc([C@H]3C[C@H](CN4CCCCC4)C3)cc2c1=O [Example 2b, trans-2-[2-(3-chlorophenyl)-4-oxo-6-[3-(1-piperidylmethyl)cyclobutyl]quinazolin-3-yl]-N-isopropyl-acetamide] |
| ++ (25-75) | 10 to 100 | CC(C)NC(=O)Cn1c(-c2cccc(Cl)c2)nc2ccc(C3CC3CCN3CCCCC3)cc2c1=O (stereo not drawn) [Example 3, 2-[2-(3-Chlorophenyl)-4-oxo-6-[2-[2-(1-piperidyl)ethyl]cyclopropyl]quinazolin-3-yl]-N-isopropyl-acetamide] |
| +++ (>75) | 10 to 100 | CC(C)NC(=O)Cn1c(-c2cccc(Cl)c2)nc2ccc(C3CC3CN3CCCCC3)cc2c1=O (stereo not drawn) [Example 4, 2-[2-(3-Chlorophenyl)-4-oxo-6-[2-(1-piperidylmethyl)cyclopropyl]quinazolin-3-yl]-N-isopropyl-acetamide] |
| +++ (>75) | 10 to 100 | CC(C)NC(=O)Cn1c(-c2cccc(Cl)c2)nc2ccc([C@H]3C[C@@H](CN4CCC(C#N)CC4)C3)cc2c1=O [Example 7, Cis-2-[2-(3-Chlorophenyl)-6-[3-[(4-cyano-1-piperidyl)methyl]cyclobutyl]-4-oxo-quinazolin-3-yl]-N-isopropyl-acetamide] |
| +++ (>75) | < 1 | CC(C)NC(=O)Cn1c(-c2cccc(Cl)c2)nc2ccc([C@H]3C[C@@H](CN4CCSCC4)C3)cc2c1=O [Example 8, cis-2-[2-(3-Chlorophenyl)-4-oxo-6-[3-(thiomorpholinomethyl)cyclobutyl]quinazolin-3-yl]-N-isopropyl-acetamide] |
| +++ (>75) | 10 to 100 | CC(C)NC(=O)Cn1c(-c2cccc(Cl)c2)nc2ccc([C@H]3C[C@@H](CN4CCCC4)C3)cc2c1=O [Example 9, cis-2-[2-(3-Chlorophenyl)-4-oxo-6-[3-(pyrrolidin-1-ylmethyl)cyclobutyl]quinazolin-3-yl]-N-isopropyl-acetamide] |
| +++ (>75) | 1 to 10 | COC1CCN(C[C@H]2C[C@@H](c3ccc4nc(-c5cccc(Cl)c5)n(CC(=O)NC(C)C)c(=O)c4c3)C2)CC1 [Example 10, cis-2-[2-(3-Chlorophenyl)-6-[3-[(4-methoxy-1-piperidyl)methyl]cyclobutyl]-4-oxo-quinazolin-3-yl]-N-isopropyl-acetamide] |
| +++ (>75) | 1 to 10 | CC(C)NC(=O)Cn1c(-c2cccc(Cl)c2)nc2ccc([C@H]3C[C@@H](CN4CC[C@@H](F)C4)C3)cc2c1=O [Example 11, cis-2-[2-(3-Chlorophenyl)-6-[3-[[(3R)-3-fluoropyrrolidin-1-yl]methyl]cyclobutyl]-4-oxo-quinazolin-3-yl]-N-isopropyl-acetamide] |
| +++ (>75) | 1 to 10 | CC(C)NC(=O)Cn1c(-c2cccc(Cl)c2)nc2ccc([C@H]3C[C@@H](CN4CCC(F)(F)CC4)C3)cc2c1=O [Example 12, cis-2-[2-(3-Chlorophenyl)-6-[3-[(4,4-difluoro-1-piperidyl)methyl]cyclobutyl]-4-oxo-quinazolin-3-yl]-N-isopropyl-acetamide] |
| +++ (>75) | 1 to 10 | CC(C)NC(=O)Cn1c(-c2cccc(Cl)c2)nc2ccc([C@H]3C[C@@H](CN4CCOCC4)C3)cc2c1=O [Example 13, cis-2-[2-(3-Chlorophenyl)-6-[3-(morpholinomethyl)cyclobutyl]-4-oxo-quinazolin-3-yl]-N-isopropyl-acetamide] |
| +++ (>75) | 10 to 100 | CCN(CC)C[C@H]1C[C@@H](c2ccc3nc(-c4cccc(Cl)c4)n(CC(=O)NC(C)C)c(=O)c3c2)C1 [Example 15, cis-2-[2-(3-Chlorophenyl)-6-[3-(diethylaminomethyl)cyclobutyl]-4-oxo-quinazolin-3-yl]-N-isopropyl-acetamide] |
| +++ (>75) | 1 to 10 | CC(C)NC(=O)Cn1c(-c2cccc(Cl)c2)nc2ccc([C@H]3C[C@@H](CN4CC[C@H](F)C4)C3)cc2c1=O [Example 16, cis-2-[2-(3-Chlorophenyl)-6-[3-[ [(3S)-3-fluoropyrrolidin-1-yl]methyl]cyclobutyl]-4-oxo-quinazolin-3-yl]-N-isopropyl-acetamide] |
| +++ (>75) | 10 to 100 | CC(C)NC(=O)Cn1c(-c2cccc(Cl)c2)nc2ccc([C@H]3C[C@@H](CN(C)C)C3)cc2c1=O [Example 17, cis-2-[2-(3-Chlorophenyl)-6-[3-(dimethylaminomethyl)cyclobutyl]-4-oxo-quinazolin-3-yl]-N-isopropyl-acetamide] |
| +++ (>75) | 1 to 10 | CC(C)NC(=O)Cn1c(-c2cccc(Cl)c2)nc2ccc([C@H]3C[C@@H](CN4CC=CCC4)C3)cc2c1=O [Example 18, cis-2-[2-(3-Chlorophenyl)-6-[3-(3,6-dihydro-2H-pyridin-1-ylmethyl)cyclobutyl]-4-oxo-quinazolin-3-yl]-N-isopropyl-acetamide] |
| +++ (>75) | 1 to 10 | CC(C)NC(=O)Cn1c(-c2cccc(Cl)c2)nc2ccc([C@H]3C[C@@H](CN4CC(F)C4)C3)cc2c1=O [Example 19, cis-2-[2-(3-Chlorophenyl)-6-[3-[(3-fluoroazetidin-1-yl)methyl]cyclobutyl]-4-oxo-quinazolin-3-yl]-N-isopropyl-acetamide] |
| +++ (>75) | 10 to 100 | CCOC1CCN(C[C@H]2C[C@@H](c3ccc4nc(-c5cccc(Cl)c5)n(CC(=O)NC(C)C)c(=O)c4c3)C2)CC1 [Example 20, cis-2-[2-(3-Chlorophenyl)-6-[3-[(4-ethoxy-1-piperidyl)methyl]cyclobutyl]-4-oxo-quinazolin-3-yl]-N-isopropyl-acetamide] |
| +++ (>75) | 1 to 10 | CC(C)NC(=O)Cn1c(-c2cccc(Cl)c2)nc2ccc([C@H]3C[C@@H](CN4CCCCCC4)C3)cc2c1=O [Example 21, cis-2-[6-[3-(Azepan-1-ylmethyl)cyclobutyl]-2-(3-chlorophenyl)-4-oxo-quinazolin-3-yl]-N-isopropyl-acetamide] |
| +++ (>75) | 1 to 10 | CC1CCN(C[C@H]2C[C@@H](c3ccc4nc(-c5cccc(Cl)c5)n(CC(=O)NC(C)C)c(=O)c4c3)C2)CC1 [Example 22, cis-2-[2-(3-Chlorophenyl)-6-[3-[(4-methyl-1-piperidyl)methyl]cyclobutyl]-4-oxo-quinazolin-3-yl]-N-isopropyl-acetamide] |
| +++ (>75) | 10 to 100 | CC(C)NC(=O)Cn1c(-c2cccc(Cl)c2)nc2ccc([C@H]3C[C@@H](CN4CC[C@H](C)C4)C3)cc2c1=O [Example 24, cis-2-[2-(3-Chlorophenyl)-6-[3-[[(3S)-3-methylpyrrolidin-1-yl]methyl]cyclobutyl]-4-oxo-quinazolin-3-yl]-N-isopropyl-acetamide] |
| – | 1 to 10 | CC(C)NC(=O)Cn1c(-c2cccc(Cl)c2)nc2ccc([C@H]3C[C@@H](CN4CC(O)C4)C3)cc2c1=O [Example 40, cis-2-[2-(3-Chlorophenyl)-6-[3-[(3-hydroxyazetidin-1-yl)methyl]cyclobutyl]-4-oxo-quinazolin-3-yl]-N-isopropyl-acetamide] |

| SMILES | Ki(h-V1a)/Ki(h-V1b) [1] | Ki [2] [nM] |
| --- | --- | --- |
| CC(C)NC(=O)Cn1c(-c2cccc(Cl)c2)nc2ccc([C@H]3C[C@@H](CN4C5CCC4CC(O)C5)C3)cc2c1=O (relative stereo) [Example 23, cis-2-[2-(3-Chlorophenyl)-6-[3-[(3-hydroxy-8-azabicyclo[3.2.1]octan-8-yl)methyl]cyclobutyl]-4-oxo-quinazolin-3-yl]-N-isopropyl-acetamide] | +++ (>75) | 1 to 10 |
